Experimental data as given in the NIST ThermoML archive (doi:10.1016/j.jct.2007.11.002).
± gives the expanded uncertainty stated by the source.

Conditions: 101.33 kPa, Liquid; for viscosity: Capillary tube (Ostwald / Ubbelohde) method; for mass density: Vibrating tube method

Row | Compound | viscosity (298.15 K) [mPa·s] | mass density (298.15 K) [kg/m3] | viscosity (303.15 K) [mPa·s] | mass density (303.15 K) [kg/m3] | viscosity (313.15 K) [mPa·s] | mass density (313.15 K) [kg/m3] | viscosity (323.15 K) [mPa·s] | mass density (323.15 K) [kg/m3]
1 | CN1CCOCC1 [N-methylmorpholine] | 0.881 ± 0.012 | 914.06 ± 0.74 | 0.864 ± 0.012 | 909.44 ± 0.73 | 0.833 ± 0.011 | 899.76 ± 0.72 | 0.814 ± 0.011 | 890.85 ± 0.71
2 | c1ccccc1 [benzene] | 0.601 ± 0.007 | 873.58 ± 0.09 | 0.563 ± 0.007 | 868.23 ± 0.09 | 0.494 ± 0.007 | 857.38 ± 0.1 | 0.436 ± 0.007 | 846.62 ± 0.1
3 | C1CCCCC1 [cyclohexane] | 0.904 ± 0.009 | 773.25 ± 0.24 | 0.809 ± 0.009 | 769.18 ± 0.24 | 0.698 ± 0.008 | 759.58 ± 0.24 | 0.604 ± 0.008 | 750.03 ± 0.24
4 | Cc1ccccc1 [toluene] | 0.553 ± 0.007 | 862.11 ± 0.23 | 0.523 ± 0.007 | 857.62 ± 0.23 | 0.471 ± 0.007 | 847.87 ± 0.25 | 0.422 ± 0.007 | 838.42 ± 0.29
